Experimental data reported in US20260092061A1, “COMPOUNDS FOR TARGETED PROTEIN DEGRADATION” (Amphista Therapeutics Limited, priority 2022, published 2026).

Tests used:
BRD9 [1] = biological target: T1, BRD9 (Homo sapiens, UniProt Q9H8M2); assay: BRD9 degradation, HiBiT-BRD9 KI HEK293 (LgBiT) cells, NanoGlo Lytic Endpoint assay (Assay Protocol 1); assay type: cell-based; conditions: BRD9 degradation; for Dmax / Dmax at 1 µM: HEK293; for Dmax at 1 µM: 1 μM compound at 6 h of treatment, read-out: Assay 1 Dmax
T1 sequence (Q9H8M2 1-597): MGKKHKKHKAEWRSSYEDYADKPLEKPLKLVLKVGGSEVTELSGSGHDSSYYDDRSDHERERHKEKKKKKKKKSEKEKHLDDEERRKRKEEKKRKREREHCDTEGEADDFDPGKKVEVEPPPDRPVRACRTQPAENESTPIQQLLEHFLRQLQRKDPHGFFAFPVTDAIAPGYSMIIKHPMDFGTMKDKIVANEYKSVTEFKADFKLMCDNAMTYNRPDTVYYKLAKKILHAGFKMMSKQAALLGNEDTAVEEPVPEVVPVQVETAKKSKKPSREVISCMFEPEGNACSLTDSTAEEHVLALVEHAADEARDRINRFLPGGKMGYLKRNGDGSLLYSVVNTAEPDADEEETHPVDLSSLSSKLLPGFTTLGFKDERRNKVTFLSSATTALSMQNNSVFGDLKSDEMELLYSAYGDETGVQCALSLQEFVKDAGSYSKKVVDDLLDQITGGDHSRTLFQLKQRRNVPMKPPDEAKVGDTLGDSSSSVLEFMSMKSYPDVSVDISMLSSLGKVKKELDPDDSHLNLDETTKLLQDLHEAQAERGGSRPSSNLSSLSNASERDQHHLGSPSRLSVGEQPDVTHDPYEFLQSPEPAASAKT
In short: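 HiBiT-tagged BRD9 knock-in HEK293 (LgBiT) cells exposed to compounds for 6 h at 37 °C, 5% CO2. Residual BRD9 measured by HiBiT lytic luminescence. % BRD9 remaining normalised to DMSO-treated cells (high) and no-cell wells (low).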

BRD9 [2] = biological target: T1, BRD9; assay: Degradation of BRD9 (IF), immunofluorescence in MV4-11 cells, 24 hours (Assay Protocol 2); assay type: cell-based; parameters: A suspension of MV4-11 cells (ATCC CRL-9591) was prepared; host or cells: MV4-11
In short: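 MV4-11 cells treated with compound 24 h at 37° C., then fixed, permeabilised and immunostained for BRD9 (anti-BRD9 E4Q3F, Alexa 647 secondary, Hoechst counterstain). High-content imaging quantified nuclear BRD9 signal; % BRD9 remaining normalised to DMSO and 100 nM CFT-8634 controls.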

[3] = Assay protocol 1, read-out: DC50
[4] = Assay protocol 1, read-out: Dmax
[5] = Assay protocol 2, BRD9 degradation, read-out: DC50
[6] = MV4-11, Assay protocol 2, BRD9 degradation, read-out: Dmax
[7] = Table 2, Assay Protocol 1, 6 h of treatment, read-out: Assay 1 DC50
[8] = MV4-11, 24 h, Table 2, BRD9 degradation (IF), Assay Protocol 2, MV4-11 cells, read-out: Assay 2 DCmax
[9] = Table 2, BRD9 degradation (IF), Assay Protocol 2, MV4-11 cells, read-out: Assay 2 DC50
[10] = Table 4, determined according to Assay Protocol 1, read-out: Dmax^1
[11] = Table 4, BRD9 degradation, determined according to Assay Protocol 2, read-out: DC50^2

| Structure (SMILES) | DC50 (BRD9 [1]; [3]) | Dmax (BRD9 [1]; [4]) | DC50 (BRD9 [2]; [5]) | Dmax (BRD9 [2]; [6]) | further results |
| --- | --- | --- | --- | --- | --- |
| COc1cc(-c2cn(C)c(=O)c(C)c2C)cc(OC)c1CN(C)Cc1ccc(C2CCCN2C(=O)/C(C#N)=C/C(C)(C)C)cc1 (mixture of isomers) [Compound B34] | 10 to 25 nM | 40 to 70% | 1.25 to 10 nM | 40 to 70% |  |
| COCC1(/C=C(\C#N)C(=O)N2CCc3c(CN4CCN(Cc5c(OC)cc(-c6cn(C)c(=O)c(C)c6C)cc5OC)CC45CC5)cccc3C2C)CC1 (mixture of isomers) [Compound B124, (E/Z)-2-(5-((7-(2,6-dimethoxy-4-(1,4,5-trimethyl-6-oxo-1,6-dihydropyridin-3-yl)benzyl)-4,7-diazaspiro[2.5]octan-4-yl)methyl)-1-methyl-1,2,3,4-tetrahydroisoquinoline-2-carbonyl)-3-(1-(methoxymethyl)cyclopropyl)acrylonitrile] | < 1.25 nM | > 75% | < 1.25 nM | > 75% |  |
| COc1cc(-c2cn(C)c(=O)c(C)c2C)cc(OC)c1CN1CCN(c2cccc(C3CCCN3C(=O)/C(C#N)=C/C(C)(C)C)c2)CC1 (mixture of isomers) [Compound B41, (E/Z)-2-(2-(3-(4-(2,6-dimethoxy-4-(1,4,5-trimethyl-4-oxo-1,6-dihydropyridin-3-yl)benzyl)piperazin-1-yl)phenyl)pyrrolidine-1carbonyl)-4,4-dimethylpent-2-enenitrile] | 1.25 to 10 nM | > 75% | 10 to 25 nM | > 75% |  |
| COc1cc(-c2cn(C)c(=O)c(C)c2C)cc(OC)c1CN1CCN(Cc2cccc3c2CCN(C(=O)/C(C#N)=C/c2nc(C(F)(F)F)cs2)C3C)CC1 (mixture of isomers) [Compound B11, (E/Z)-2-(5-((4-(2,6-dimethoxy-4-(1,4,5-trimethyl-6-oxo-1,6-dihydropyridin-3-yl)benzyl)piperazin-1-yl)methyl)-1-methyl-1,2,3,4-tetrahydroisoquinoline-2-carbonyl)-3-(4-(trifluoromethyl)thiazol-2-yl)acrylonitrile] | < 1.25 nM | > 75% | < 1.25 nM | > 75% |  |
| COc1cc(-c2cn(C)c(=O)c(C)c2C)cc(OC)c1CN1CCN(Cc2cccc3c2CCN(C(=O)/C(C#N)=C/C24CC(C2)C4)C3C)CC1 (mixture of isomers) [Compound B45, (E/Z)-3-(bicyclo[1.1.1]pentan-1-yl)-2-(5-((4-(2,6-dimethoxy-4-(1,4,5-trimethyl-6-oxo-1,6-dihydropyridin-3-yl)benzyl)piperazin-1-yl)methyl)-1-methyl-1,2,3,4-tetrahydroisoquinoline-2-carbonyl)acrylonitrile] | < 1.25 nM | > 75% | < 1.25 nM | > 75% |  |
| COc1cc(-c2cn(C)c(=O)c3cnccc23)cc(OC)c1CN1CCN(Cc2cccc3c2CCN(C(=O)/C(C#N)=C/C2(C)COC2)C3C)CC1 (mixture of isomers) [Compound A27, (E/Z)-2-(5-((4-(2,6-dimethoxy-4-(2-methyl-1-oxo-1,2-dihydro-2,7-naphthyridin-4-yl)benzyl)piperazin-1-yl)methyl)-1-methyl-1,2,3,4-tetrahydroisoquinoline-2-carbonyl)-3-(3-methyloxetan-3-yl)acrylonitrile] |  |  |  |  | Dmax at 1 µM (BRD9 [1]; Table 2, Assay Protocol 1): 40 to 70%; DC50 (BRD9 [1]; [7]): 1.25 to 10 nM; Dmax (BRD9 [2]; [8]): 40 to 70%; DC50 (BRD9 [2]; [9]): 1.25 to 10 nM |
| COc1cc(-c2cn(C)c(=O)c3cnccc23)cc(OC)c1CN1CCC(Oc2cccc3c2CCN(C(=O)/C(C#N)=C/C(C)(C)C)C3C)CC1 (mixture of isomers) [Compound A28, (E/Z)-2-(5-((1-(2,6-dimethoxy-4-(2-methyl-1-oxo-1,2-dihydro-2,7-naphthyridin-4-yl)benzyl)piperidin-4-yl)oxy)-1-methyl-1,2,3,4-tetrahydroisoquinoline-2-carbonyl)-4,4-dimethylpent-2-enenitrile] |  |  |  |  | Dmax at 1 µM (BRD9 [1]; Table 2, Assay Protocol 1): 40 to 70%; DC50 (BRD9 [1]; [7]): 1.25 to 10 nM; Dmax (BRD9 [2]; [8]): 40 to 70% |
| COc1cc(-c2cn(C)c(=O)c(C)c2C)cc(OC)c1CN1CCN(Cc2cccc3c2CCN(C(=O)/C(C#N)=C/c2ncc(C(F)(F)F)s2)C3C)CC1 (mixture of isomers) [Compound B10, (E/Z)-2-(5-((4-(2,6-dimethoxy-4-(1,4,5-trimethyl-6-oxo-1,6-dihydropyridin-3-yl)benzyl)piperazin-1-yl)methyl)-1-methyl-1,2,3,4-tetrahydroisoquinoline-2-carbonyl)-3-(5-(trifluoromethyl)thiazol-2-yl)acrylonitrile] | 1.25 to 10 nM | 70 to 75% |  | 40 to 70% |  |
| COc1cc(-c2cn(C)c(=O)c3cnccc23)cc(OC)c1CN1CCN(Cc2cccc3c2CCN(C(=O)/C(C#N)=C\C2(F)CC2)C3C)CC1 (mixture of isomers) [Compound A22, (E/Z)-2-(5-((4-(2,6-dimethoxy-4-(2-methyl-1-oxo-1,2-dihydro-2,7-naphthyridin-4-yl)benzyl)piperazin-1-yl)methyl)-1-methyl-1,2,3,4-tetrahydroisoquinoline-2-carbonyl)-3-(1-fluorocyclopropyl)acrylonitrile] |  |  |  |  | Dmax at 1 µM (BRD9 [1]; Table 2, Assay Protocol 1): > 75%; DC50 (BRD9 [1]; [7]): 1.25 to 10 nM; Dmax (BRD9 [2]; [8]): > 75%; DC50 (BRD9 [2]; [9]): < 1.25 nM |
| COc1cc(-c2cn(C)c(=O)c(C)c2C)cc(OC)c1CN1CCN(C(=O)[C@@H]2CN(C(=O)/C(C#N)=C/C(C)(C)C)C[C@H]2C2CCCCC2)CC1 [Compound B210] |  |  |  |  | Dmax (BRD9 [1]; [10]): 50 to 70%; DC50 (BRD9 [1]; Table 4, determined according to Assay Protocol 1, read-out: DC50^1): 25 to 200 nM; Dmax (BRD9 [2]; MV4-11, Table 4, BRD9 degradation, determined according to Assay Protocol 2, read-out: Dmax^2): 50 to 70%; DC50 (BRD9 [2]; [11]): 25 to 200 nM |
| COc1cc(-c2cn(C)c(=O)c(C)c2C)cc(OC)c1CN1CC(Oc2ccc3c(c2)CCN(C(=O)/C(C#N)=C/c2cccc(Br)n2)C3C)C1 (mixture of isomers) [Compound B57, (E/Z)-3-(6-bromopyridin-2-yl)-2-(6-((1-(2,6-dimethoxy-4-(1,4,5-trimethyl-6-oxo-1,6-dihydropyridin-3-yl)benzyl)azetidin-3-yl)oxy)-1-methyl-1,2,3,4-tetrahydroisoquinoline-2-carbonyl)acrylonitrile] | < 1.25 nM | 40 to 70% | < 1.25 nM | 40 to 70% |  |
| COc1cc(-c2cn(C)c(=O)c(C)c2C)cc(OC)c1CN1C2CC1CN(C(=O)/C(C#N)=C/c1nccs1)C2 (mixture of isomers) [BRD9n, (E/Z)-2-(6-(2,6-dimethoxy-4-(1,4,5-trimethyl-6-oxo-1,6-dihydropyridin-3-yl)benzyl)-3,6-diazabicyclo[3.1.1]heptane-3-carbonyl)-3-(thiazol-2-yl)acrylonitrile] |  |  |  |  | Dmax (BRD9 [1]; [10]): 50 to 70%; DC50 (BRD9 [2]; [11]): 25 to 200 nM |

Continued, in another order:

| DC50 (BRD9 [1]; [3]) | Dmax (BRD9 [1]; [4]) | DC50 (BRD9 [2]; [5]) | Dmax (BRD9 [2]; [6]) | Structure (SMILES) | further results |
| --- | --- | --- | --- | --- | --- |
| 1.25 to 10 nM | 40 to 70% |  | 25 to 40% | COc1cccnc1/C=C(\C#N)C(=O)N1CCc2c(CN3CCN(Cc4c(OC)cc(-c5cn(C)c(=O)c(C)c5C)cc4OC)CC3)cccc2C1C (mixture of isomers) [Compound B51, (E/Z)-2-(5-((4-(2,6-dimethoxy-4-(1,4,5-trimethyl-6-oxo-1,6-dihydropyridin-3-yl)benzyl)piperazin-1-yl)methyl)-1-methyl-1,2,3,4-tetrahydroisoquinoline-2-carbonyl)-3-(3-methoxypyridin-2-yl)acrylonitrile] |  |
| < 1.25 nM | > 75% | < 1.25 nM | > 75% | COc1cc(-c2cn(C)c(=O)c(C)c2C)cc(OC)c1CN1CCN(Cc2cccc3c2CCN(C(=O)/C(C#N)=C/c2ccnc(C)n2)C3C)CC1 (mixture of isomers) [Compound B9, (E/Z)-2-(5-((4-(2,6-dimethoxy-4-(1,4,5-trimethyl-6-oxo-1,6-dihydropyridin-3-yl)benzyl)piperazin-1-yl)methyl)-1-methyl-1,2,3,4-tetrahydroisoquinoline-2-carbonyl)-3-(2-methylpyrimidin-4-yl)acrylonitrile] |  |
